Measurements taken from US10538521B2, “Pyrimidine derivative having antimalarial activity” (CARNA BIOSCIENCES, INC., priority 2016, dated 2020).

Assays:
[1] = tested on: K1 strain, a drug resistant strain of Plasmodium falciparum; assay: In vitro antimalarial assay (p-LDH, Malstat), K1 strain; assay type: cell-based; conditions: P. falciparum K1 (drug resistant), 72 h culture, p-LDH readout, read-out: Antimalarial activity (IC50 value), Strain K1
How it was run: (§1)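 P. falciparum FCR3 and K1 cultured in human erythrocytes (RPMI 1640, 10% human plasma; 2% hematocrit, 0.5 or 1% parasitaemia) with compound at 12.5 to 0.0001 μM final for 72 h at 37° C (3% O2-4% CO2-93% N2). Growth read as p-LDH activity (Malstat/NBT-PES, A655 nm) after freeze-thaw; IC50 from concentration-response curve.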

[2] = tested on: FCR3 strain, a drug sensitive strain of Plasmodium falciparum; assay: In vitro antimalarial assay (p-LDH, Malstat), FCR3 strain; assay type: cell-based; conditions: P. falciparum FCR3 (drug sensitive), 72 h culture, p-LDH readout, read-out: Antimalarial activity (IC50 value), Strain FCR3
How it was run: as §1

IC50 [1] [nM]	IC50 [2] [nM]	Structure (SMILES)
< 100	< 100	Cc1cc(C)nc(Nc2nc(Nc3ccn4ccnc4c3)cc(N3CC(C)(C)C3)n2)c1 [Example 177, 6-(3,3-dimethylazetidin-1-yl)-N2-(4,6-dimethylpyridin-2-yl)-N4-(imidazo[1,2-a]pyridin-7-yl)pyrimidine-2,4-diamine]
< 100	< 100	Cc1cc(C)nc(Nc2nc(Nc3ccn4ccnc4c3)cc(N3CC4(COC4)C3)n2)c1 [Example 178, N2-(4,6-dimethylpyridin-2-yl)-N4-(imidazo[1,2-a]pyridin-7-yl)-6-(2-oxa-6-azaspiro[3.3]heptan-6-yl)pyrimidine-2,4-diamine]
100 to 1000	100 to 1000	CCCCc1cccc(Nc2nc(Nc3ccn4ccnc4c3)cc(N3C[C@H]4CCC[C@H]4C3)n2)n1 [Example 179, N2-(6-butylpyridin-2-yl)-6-((3aR,6aS)-hexahydrocyclopenta[c]pyrrol-2(1H)-yl)-N4-(imidazo [1,2-a]pyridin-7-yl)pyrimidine-2,4-diamine]
< 100	< 100	CCCCc1cccc(Nc2nc(Nc3ccn4ccnc4c3)cc(N3CC(C)(C)C3)n2)n1 [Example 180, N2-(6-butylpyridin-2-yl)-6-(3,3-dimethylazetidin-1-yl)-N4-(imidazo[1,2-a]pyridin-7-yl) pyrimidine-2,4-diamine]
< 100	100 to 1000	CCCCc1cccc(Nc2nc(Nc3ccn4ccnc4c3)cc(N3CC4(COC4)C3)n2)n1 [Example 181, N2-(6-butylpyridin-2-yl)-N4-(imidazo[1,2-a]pyridin-7-yl)-6-(2-oxa-6-azaspiro[3.3]heptan-6-yl)pyrimidine-2,4-diamine]
100 to 1000	100 to 1000	Cc1cc(C)nc(Nc2nc(Nc3ccn4ccnc4c3)cc(N3CCC(C)(C)CC3)n2)c1 [Example 182, 6-(4,4-dimethylpiperidin-1-yl)-N2-(4,6-dimethylpyridin-2-yl)-N4-(imidazo[1,2-a]pyridine-7-yl)pyrimidine-2,4-diamine]
100 to 1000	100 to 1000	Cc1cc(C)nc(Nc2nc(Nc3ccn4ccnc4c3)cc(N3CCC(C)CC3)n2)c1 [Example 183, N2-(4,6-dimethylpyridin-2-yl)-N4-(imidazo[1,2-a]pyridin-7-yl)-6-(4-methylpiperidin-1-yl) pyrimidine-2,4-diamine]
100 to 1000	100 to 1000	Cc1cc(C)nc(Nc2nc(Nc3ccn4ccnc4c3)cc(N3CCCC(C)C3)n2)c1 (stereo not shown) [Example 184, N2-(4,6-dimethylpyridin-2-yl)-N4-(imidazo[1,2-a]pyridin-7-yl)-6-(3-methylpiperidin-1-yl) pyrimidine-2,4-diamine]
< 100	< 100	Cc1cc(C)nc(Nc2nc(Nc3ccn4ccnc4c3)cc(N3CC[C@H](F)C3)n2)c1 [Example 185, (S)-N2-(4,6-dimethylpyridin-2-yl)-6-(3-fluoropyrrolidin-1-yl)-N4-(imidazo[1,2-a]pyridin-7-yl) pyrimidine-2,4-diamine]
< 100	< 100	Cc1cc(C)nc(Nc2nc(Nc3ccn4ccnc4c3)cc(N3CC[C@@H](F)C3)n2)c1 [Example 186, (R)-N2-(4,6-dimethylpyridin-2-yl)-6-(3-fluoropyrrolidin-1-yl)-N4-(imidazo[1,2-a]pyridin-7-yl) pyrimidine-2,4-diamine]
100 to 1000	100 to 1000	CCCCc1cc(C)cc(Nc2nc(Nc3ccn4ccnc4c3)cc(N3CCCCC3)n2)n1 [Example 187, N2-(6-butyl-4-methylpyridin-2-yl)-N4-(imidazo[1,2-a]pyridin-7-yl)-6-(piperidin-1-yl) pyrimidine-2,4-diamine]
< 100	< 100	Cc1cc(CC(C)C)nc(Nc2nc(Nc3ccn4ccnc4c3)cc(N3CCCCC3)n2)c1 [Example 188, N4-(imidazo[1,2-a]pyridin-7-yl)-N2-(6-isobutyl-4-methylpyridin-2-yl)-6-(piperidin-1-yl) pyrimidine-2,4-diamine]
< 100	< 100	CCc1cc(C)cc(Nc2nc(Nc3ccn4ccnc4c3)cc(N3CCCCC3)n2)n1 [Example 189, N2-(6-ethyl-4-methylpyridin-2-yl)-N4-(imidazo[1,2-a]pyridin-7-yl)-6-(piperidin-1-yl)pyrimidine-2,4-diamine]
< 100	< 100	COc1cc(C)nc(Nc2nc(Nc3ccn4ccnc4c3)cc(N3CCCCC3)n2)c1 [Example 190, N4-(imidazo[1,2-a]pyridin-7-yl)-N2-(4-methoxy-6-methylpyridin-2-yl)-6-(piperidin-1-yl) pyrimidine-2,4-diamine]
100 to 1000	100 to 1000	COc1cc(CF)nc(Nc2nc(Nc3ccn4ccnc4c3)cc(N3CCCCC3)n2)c1 [Example 191, N2-(6-(fluoromethyl)-4-methoxypyridin-2-yl)-N4-(imidazo [1,2-a]pyridin-7-yl)-6-(piperidin-1-yl)pyrimidine-2,4-diamine]
1000 to 10000	100 to 1000	OCc1cccc(Nc2nc(Nc3ccn4ccnc4c3)cc(N3CCCCC3)n2)n1 [Example 192, (6-{[4-(imidazo[1,2-a]pyridin-7-ylamino)-6-(piperidin-1-yl)pyrimidin-2-yl]amino}pyridin-2-yl)methanol]
< 100	< 100	Cc1cc(C)nc(Nc2nc(Nc3ccn4ccnc4c3)cc(N3C[C@@H]4OCCO[C@@H]4C3)n2)c1 [Example 194, N2-(4,6-dimethylpyridin-2-yl)-N4-(imidazo[1,2-a]pyridin-7-yl)-6-[(4aR,7aS)-tetrahydro-2H-[1,4]dioxino[2,3-c]pyrrol-6(3H)-yl]pyrimidine-2,4-diamine]
100 to 1000	100 to 1000	Cc1cc(C)nc(Nc2nc(Nc3ccccc3)cc(Nc3ccn4ccnc4c3)n2)c1 [Example 195, N2-(4,6-dimethylpyridin-2-yl)-N4-(imidazo[1,2-a]pyridin-7-yl)-N6-phenylpyrimidine-2,4,6-triamine]
< 100	< 100	Cc1cc(C)nc(Nc2nc(NCc3ccccc3)cc(Nc3ccn4ccnc4c3)n2)c1 [Example 196, N4-benzyl-N2-(4,6-dimethylpyridin-2-yl)-N6-(imidazo[1,2-a]pyridin-7-yl)pyrimidine-2,4,6-triamine]
100 to 1000	100 to 1000	CCCCc1cc(OC)cc(Nc2nc(Nc3ccn4ccnc4c3)cc(N3CCCCC3)n2)n1 [Example 197, N2-(6-butyl-4-methoxypyridin-2-yl)-N4-(imidazo[1,2-a]pyridin-7-yl)-6-(piperidin-1-yl) pyrimidine-2,4-diamine]
100 to 1000	< 100	Cc1cc(C)nc(Nc2nc(Nc3ccn4ccnc4c3)cc(NN3CCCCC3)n2)c1 [Example 198, N2-(4,6-dimethylpyridin-2-yl)-N4-(imidazo[1,2-a]pyridin-7-yl)-N6-(piperidin-1-yl)pyrimidine-2,4,6-triamine]
< 100	< 100	Cc1cc(C)nc(Nc2nc(Nc3ccn4ccnc4c3)cc(NN3CCOCC3)n2)c1 [Example 199, N2-(4,6-dimethylpyridin-2-yl)-N4-(imidazo[1,2-a]pyridin-7-yl)-N6-morpholinopyrimidine-2,4,6-triamine]
100 to 1000	100 to 1000	Cc1cc(C)nc(Nc2nc(Nc3ccn4ccnc4c3)cc(Nn3cccc3)n2)c1 [Example 200, N2-(4,6-dimethylpyridin-2-yl)-N4-(imidazo[1,2-a]pyridin-7-yl)-N6-(1H-pyrrol-1-yl)pyrimidine-2,4,6-triamine]
